These results are taken from US20250382361A1, “AFFIBODIES, HYDROGELS CONTAINING AFFIBODIES, AND USES THEREOF” (University of Oregon, priority 2024, published 2025).

Where two headings read alike, the source gives them in different places.

As a reminder, the Kd is the equilibrium constant for the complex coming apart. The term EC50 (read off the curve) denotes the concentration needed to bring the measured effect to its halfway point.

The subject of assay [1] is HUVECs. Briefly: Endothelial tube formation assay. The assay is classed as cell-based, human. On the procedure: Human umbilical vein endothelial cells (HUVECs) were seeded in tissue culture flasks at 2,500 cells/cm^2 and cultured in complete Endothelial Growth Medium (Lonza, Walkersville, MD) at 37° C. and 5% CO2. Upon reaching 60-80% confluence, cells were washed with PBS, trypsinized, and seeded at 5,000 or 15,000 cells/well onto 96-well plates pre-coated with 100 μL of Cultrex Reduced Growth Factor Basement Membrane Extract (RGF BME, R&D Systems). HUVECs were allowed to adhere to the coated surface for 2 hours. […] Cells were cultured for 48 hours on a BioTek Lionheart FX automated microscope (Agilent Technologies, Santa Clara, CA) at 37° C. and 5% CO2 with 4× phase contrast time lapse images taken at 4, 8, 12, 16, 20, 24, and 48 hours. Total network length and branching of HUVEC networks were measured from images using the Angiogenesis Analyzer plugin for ImageJ.
Responses of HUVECs to each of the three growth factors of interest were first studied.

The next assay addresses antithrombin-III (Homo sapiens, UniProt P01008). Conditions: cited from earlier work.
For the next assay, the target named is integrin α5β1 (Homo sapiens, UniProt P05556+P08648). Particulars: cited from earlier work.
Chain of integrin α5β1 (P08648 42-894 limits assumed): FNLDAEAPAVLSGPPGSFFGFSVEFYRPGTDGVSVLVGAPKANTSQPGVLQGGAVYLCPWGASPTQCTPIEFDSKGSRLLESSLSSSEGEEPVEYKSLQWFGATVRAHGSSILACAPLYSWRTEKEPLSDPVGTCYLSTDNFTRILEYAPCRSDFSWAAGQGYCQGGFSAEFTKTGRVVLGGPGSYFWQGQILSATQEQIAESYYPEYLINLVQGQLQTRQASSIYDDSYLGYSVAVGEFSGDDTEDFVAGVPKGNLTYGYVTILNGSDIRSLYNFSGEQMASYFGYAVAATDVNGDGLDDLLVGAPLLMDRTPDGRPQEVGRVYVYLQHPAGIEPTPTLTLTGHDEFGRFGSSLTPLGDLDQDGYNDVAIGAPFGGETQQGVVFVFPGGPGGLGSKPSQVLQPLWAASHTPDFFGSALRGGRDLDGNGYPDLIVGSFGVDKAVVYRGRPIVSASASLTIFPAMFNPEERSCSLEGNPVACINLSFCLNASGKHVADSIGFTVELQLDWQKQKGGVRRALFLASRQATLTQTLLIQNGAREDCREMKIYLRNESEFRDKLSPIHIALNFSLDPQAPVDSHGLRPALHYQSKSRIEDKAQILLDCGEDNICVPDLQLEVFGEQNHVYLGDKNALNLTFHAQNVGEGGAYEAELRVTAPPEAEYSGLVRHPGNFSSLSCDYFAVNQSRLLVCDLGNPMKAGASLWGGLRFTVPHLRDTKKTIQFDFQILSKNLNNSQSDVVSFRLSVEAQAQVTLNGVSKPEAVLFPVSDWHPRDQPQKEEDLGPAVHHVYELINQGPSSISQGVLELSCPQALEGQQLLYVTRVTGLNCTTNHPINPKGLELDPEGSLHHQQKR
Chain of integrin α5β1 (P08648 895-1049 limits assumed): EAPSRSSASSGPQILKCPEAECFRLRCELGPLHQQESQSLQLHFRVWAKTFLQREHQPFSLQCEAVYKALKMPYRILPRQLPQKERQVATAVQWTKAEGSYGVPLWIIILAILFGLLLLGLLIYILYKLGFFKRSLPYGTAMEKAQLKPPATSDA
Chain of integrin α5β1 (P05556 21-798): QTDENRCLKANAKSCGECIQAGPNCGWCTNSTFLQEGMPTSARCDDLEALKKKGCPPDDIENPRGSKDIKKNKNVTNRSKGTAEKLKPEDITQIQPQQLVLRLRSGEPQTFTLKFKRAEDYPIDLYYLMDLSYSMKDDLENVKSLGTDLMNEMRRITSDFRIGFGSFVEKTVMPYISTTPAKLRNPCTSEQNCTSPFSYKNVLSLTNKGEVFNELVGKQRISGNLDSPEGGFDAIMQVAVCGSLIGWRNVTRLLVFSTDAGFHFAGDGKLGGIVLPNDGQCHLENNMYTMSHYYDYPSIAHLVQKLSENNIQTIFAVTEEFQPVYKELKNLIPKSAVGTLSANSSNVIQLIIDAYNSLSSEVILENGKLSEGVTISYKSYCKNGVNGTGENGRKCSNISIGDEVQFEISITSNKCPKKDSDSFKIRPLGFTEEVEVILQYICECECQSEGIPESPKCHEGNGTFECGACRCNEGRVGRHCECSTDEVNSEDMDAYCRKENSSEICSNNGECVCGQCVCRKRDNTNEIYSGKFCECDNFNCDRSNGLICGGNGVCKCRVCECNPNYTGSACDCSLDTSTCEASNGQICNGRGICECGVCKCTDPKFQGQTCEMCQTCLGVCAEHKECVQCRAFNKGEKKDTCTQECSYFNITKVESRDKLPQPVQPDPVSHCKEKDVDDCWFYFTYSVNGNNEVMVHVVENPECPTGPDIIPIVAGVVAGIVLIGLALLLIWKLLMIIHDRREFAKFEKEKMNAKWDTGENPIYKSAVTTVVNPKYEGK
Assay [2] has as its target fibroblast growth factor-1 (Homo sapiens, UniProt P05230). Conditions: cited from earlier work.
Another assay deals with T1, VEGF165 (Homo sapiens, UniProt P15692).
T1 construct: biotin (label as supplied by the vendor); purchased Acro Biosystems
T1 sequence (P15692 1-191 isoform P15692-4): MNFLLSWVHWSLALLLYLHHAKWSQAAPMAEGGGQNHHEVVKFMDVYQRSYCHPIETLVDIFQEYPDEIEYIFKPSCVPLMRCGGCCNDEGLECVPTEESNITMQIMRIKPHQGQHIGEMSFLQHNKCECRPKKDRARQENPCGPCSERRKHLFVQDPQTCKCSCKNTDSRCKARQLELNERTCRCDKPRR
Conditions: cited from earlier work.

Assay [3] concerns HUVECs. Briefly: VEGF bioactivity HUVEC proliferation assay (CellTiter-Glo). Type of assay: cell-based, human. Particulars: VEGF for 96 hours. A general note: ATP-based viability assays read luminescence as a measure of living cells.
The target of assay [4] is T2, Recombinant VEGF165 (vascular endothelial growth factor) (UniProt P15692-4 27-191, biotinylated (bVEGF) in flow cytometry and BLI).
T2 construct: also called VEGF-A (165); bVEGF
In words: biolayer interferometry, 25 nM bVEGF on streptavidin probes, soluble affibody 15.625-125 nM. How it is done: All samples were diluted in PBS solution containing 0.05% Tween-20® (PBST). […] Dissociation constants were obtained from a 1:1 global curve fitting of the data. n=4.

In assay [5] the target is PDGF receptor beta (PDGFRβ) on NIH/3T3-Luc cells (UniProt P05622 32-1098, limits assumed). Briefly: cell-based or functional assay.
Chain of PDGF receptor beta (PDGFRβ) on NIH/3T3-Luc cells (P05622 32-1098 limits assumed): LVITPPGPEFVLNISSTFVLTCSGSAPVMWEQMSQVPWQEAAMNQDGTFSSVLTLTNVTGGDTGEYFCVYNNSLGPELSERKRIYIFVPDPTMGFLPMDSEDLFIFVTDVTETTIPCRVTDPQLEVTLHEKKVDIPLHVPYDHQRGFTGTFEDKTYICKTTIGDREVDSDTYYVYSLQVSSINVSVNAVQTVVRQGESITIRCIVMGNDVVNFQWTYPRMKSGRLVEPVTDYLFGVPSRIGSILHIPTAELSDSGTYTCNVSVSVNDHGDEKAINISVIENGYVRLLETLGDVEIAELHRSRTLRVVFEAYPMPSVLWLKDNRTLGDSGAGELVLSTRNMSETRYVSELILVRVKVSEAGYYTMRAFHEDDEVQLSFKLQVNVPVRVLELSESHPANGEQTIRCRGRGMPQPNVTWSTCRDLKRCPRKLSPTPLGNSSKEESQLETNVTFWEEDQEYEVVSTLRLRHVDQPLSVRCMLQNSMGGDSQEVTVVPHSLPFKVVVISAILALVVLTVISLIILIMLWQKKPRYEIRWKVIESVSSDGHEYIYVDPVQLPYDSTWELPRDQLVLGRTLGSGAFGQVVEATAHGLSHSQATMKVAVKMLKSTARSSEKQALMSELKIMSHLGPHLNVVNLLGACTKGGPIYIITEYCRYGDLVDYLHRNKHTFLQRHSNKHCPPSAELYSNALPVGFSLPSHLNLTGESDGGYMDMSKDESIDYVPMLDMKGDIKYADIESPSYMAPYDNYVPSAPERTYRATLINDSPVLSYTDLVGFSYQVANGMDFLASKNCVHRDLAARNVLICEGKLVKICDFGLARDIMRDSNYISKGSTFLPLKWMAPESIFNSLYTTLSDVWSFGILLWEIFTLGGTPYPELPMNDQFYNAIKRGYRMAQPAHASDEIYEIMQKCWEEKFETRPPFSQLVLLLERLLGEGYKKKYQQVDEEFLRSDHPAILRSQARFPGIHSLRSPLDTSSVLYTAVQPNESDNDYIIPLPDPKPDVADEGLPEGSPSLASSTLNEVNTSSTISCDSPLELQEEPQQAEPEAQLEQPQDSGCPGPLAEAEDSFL
Another assay deals with NIH/3T3-Luc cells. Briefly: PDGF bioactivity luciferase reporter assay. Type of assay: cell-based. Particulars: PDGF for 5 hours. How it is done: NIH/3T3 fibroblast cells (ATCC) were thawed, seeded at 10,000 cell/cm^2, and expanded in growth medium consisting of DMEM containing 10% (v/v) fetal bovine serum (R&D Systems, Minneapolis, MN). Cultures were routinely maintained at 37° C. and 5% CO2 and passaged at 60-70% confluence. After three passages of expansion, NIH/3T3 cells were grown in Eagle's Minimal Essential Medium (EMEM, ATCC) for a single passage prior to transfection. Transfection mixtures were prepared according to the manufacturer's protocols. Briefly, 2500 ng of luciferase reporter plasmid pGL4.33 [luc2P/SRE/Hygro] […]
NIH/3T3-Luc cells were seeded at 31,250 cells/cm^2 and incubated in 100 μL of growth medium overnight in 96 well plates. […] Luminescence was then measured using SpectraMax 13 plate reader (Molecular Devices, San Jose, CA).
PDGF bioactivity was assessed using NIH/3T3 cells transfected with a firefly luciferase gene reporter plasmid that links multiple ERK1/2 signaling pathways, including PDGFRβ signaling, to luciferase expression through a serum response element under the regulation of ERK1/2 (FIG. 30A). […] Firefly luciferase expression was assessed via the conversion of 5′-fluoroluciferin to oxyfluoroluciferin, which generates a stable luminescent output correlated to firefly luciferase concentration. […]
(In general: In a reporter assay the amount or activity of a reporter protein is the signal.)

Assay [6] addresses T3, Recombinant human BMP-2 (bone morphogenetic protein 2) (human, UniProt P12643 283-396, biotinylated with Sulfo-NHS-Biotin (bBMP-2) in flow cytometry and BLI).
T3 construct: Bought protein; also called bBMP-2; bBMP
Briefly: flow cytometry, yeast-displayed affibody titrated with bBMP-2 0.5-1000 nM. An excerpt: Yeast clones with names starting with the letter A were identified using the gating approach in FIG. 2A, and yeast clones with names starting with B were identified using the gate approach in FIG. 2B. The affibodies chosen for further characterization are boxed in the legend.
(In general: A flow cytometer gives signals particle by particle.)

T3 sequence (P12643 283-396 limits assumed): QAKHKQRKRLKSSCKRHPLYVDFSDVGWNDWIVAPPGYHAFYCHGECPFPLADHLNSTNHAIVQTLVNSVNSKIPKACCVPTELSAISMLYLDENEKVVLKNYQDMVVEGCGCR
Chain of antithrombin-III (P01008 33-464, species assumed): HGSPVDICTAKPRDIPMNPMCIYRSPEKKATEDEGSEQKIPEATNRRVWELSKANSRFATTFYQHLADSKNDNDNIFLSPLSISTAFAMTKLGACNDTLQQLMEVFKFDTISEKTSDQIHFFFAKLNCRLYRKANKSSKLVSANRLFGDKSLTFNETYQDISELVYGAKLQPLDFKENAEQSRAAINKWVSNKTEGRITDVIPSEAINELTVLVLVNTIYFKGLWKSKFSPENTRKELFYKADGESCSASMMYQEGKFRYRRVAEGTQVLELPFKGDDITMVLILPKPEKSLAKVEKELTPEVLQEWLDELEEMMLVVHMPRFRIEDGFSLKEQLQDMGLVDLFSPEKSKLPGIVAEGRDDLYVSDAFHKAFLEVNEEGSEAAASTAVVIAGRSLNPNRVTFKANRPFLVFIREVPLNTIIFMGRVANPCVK
Chain of fibroblast growth factor-1 (P05230 whole entry, species assumed): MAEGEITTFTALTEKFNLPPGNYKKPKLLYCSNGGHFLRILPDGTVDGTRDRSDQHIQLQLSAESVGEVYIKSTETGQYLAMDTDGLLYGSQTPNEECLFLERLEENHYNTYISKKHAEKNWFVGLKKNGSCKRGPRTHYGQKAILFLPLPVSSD

Take FGF-2: Recombinant FGF-2 (PeproTech): the “HUVEC network length and branching” value in the assay on HUVECs [1] (5, 10, or 50 ng/mL) is listed as “limited impact”.

Take heparin: the Kd at antithrombin-III was 163 nM; at integrin α5β1, 2040 nM; in [2] it was 461 nM; at VEGF165, 165 nM.

Consider VEGF, for which the maximum response result in the assay with HUVECs [3] is on record as “approximately 36,000 relative luminescent units (RLUs)”. For the same molecule, the “HUVEC network length and branching” value in the assay with HUVECs [1] is “limited impact”.

B1: Moderate Affinity BMP-2 Affibody, soluble, with hexahistidine tag and C-terminal cysteine (SEQ ID NO: 72) (designed binder)
chain: AEAKYAKEQFNAYVVIFYLPNLTASQKAAFVDALSNDPSQSSELLSEAKKLNDSQAPKHHHHHHC
notes: E. coli-expressed; also called A2-2
Take B1: the binding result in assay [4] is listed as “no binding (tested: 125 nM)”.

B2: Recombinant human PDGF-BB (platelet-derived growth factor) (ligand, UniProt P01127 82-190, looked up)
chain: SLGSLTIAEPAMIAECKTRTEVFEISRRLIDRTNANFLVWPPCVEVQRCSGCCNNRNVQCRPTQVQLRPVQVRKIEIVRKKPIFKKATVTLEDHLACKCETVAAARPVT
modifications: biotinylated (bPDGF) in flow cytometry and off-target BLI; not biotinylated in the Ni-NTA BLI
As to B2, the “50% effective dose (EC50), luminescence of NIH/3T3-Luc reporter cells” value in assay [5] is 2.94 ng/mL.

B3: PDGF: Recombinant PDGF-BB (PeproTech) (protein)
chain: B2 chain
As to B3, in the assay with HUVECs [1] (5, 10, or 50 ng/mL), the “HUVEC network length and branching” value is “limited impact”. Moreover, the maximal response in the assay on NIH/3T3-Luc cells is recorded as 23,655 relative luminescent units (RLUs).

B4: Moderate Affinity BMP-2 affibody A2-2 (SEQ ID NO: 2), yeast-displayed (designed binder)
chain: AEAKYAKEQFNAYVVIFYLPNLTASQKAAFVDALSNDPSQSSELLSEAKKLNDSQAPK
For the molecule B4, in assay [6], the “EC50 (read off the curve)” value is roughly 20 nM.

B5: BMP-2 affibody A3-2 (SEQ ID NO: 9), yeast-displayed (designed binder)
chain: B4 chain
In the case of B5, the “EC50 (read off the curve)” value in assay [6] is roughly 10 nM.
